# Laboratory results: a melting point compilation (Tetko et al.)
row,SMILES,melting point
1,COC(=O)C1CC(O)CN1C(=O)c1ccc(F)cc1 (stereo unspecified),150 to 152 °C
2,O=[N+]([O-])c1ccc(-c2cn[nH]c2)cc1,205 to 207 °C
3,Cn1nc(-c2ccccc2)nc1CC#N,116 to 118 °C
4,O=C(O)CNC(=O)c1ccccn1,167 to 169 °C
5,CS(=O)(=O)N1CCCC(C(=O)O)C1 (stereo unspecified),107 to 109 °C
6,CCn1c(N)c(-c2csc(C)n2)c(=O)[nH]c1=O,250 to 252 °C
7,CN1CCN(c2ccc(C(F)(F)F)cc2N)CC1,178 to 180 °C
8,CC1CNc2c(cccc2S(N)(=O)=O)C1 (stereo unspecified),162 to 164 °C
9,O=C(O)CNC(=O)CCC1CCCC1,112 to 114 °C
10,O=Cc1c(N2CCOCC2)nc2ccccn12,164 to 166 °C
11,NC(=S)c1cccc([N+](=O)[O-])c1,132 to 134 °C
12,O=C(O)CSc1nnc(-c2ccc3ccccc3c2)o1,182 to 184 °C
13,Nc1nc2c(ccc3ccccc32)s1,134 to 136 °C
14,Cc1csc2ccc(Cl)cc2c1=O,109 to 111 °C
15,Cc1cc(SC(C)(C)C)ccc1N,69 to 71 °C
16,COc1ccc(S(N)(=O)=O)c(C)c1C,202 to 204 °C
17,O=C(O)CCC(=O)c1ccc2ccc3cccc4ccc1c2c34,184 to 186 °C
18,C=CC(=O)Nc1cc(Cl)c(OC)cc1OC,142 to 144 °C
19,CN(CC(N)=O)C1CCCC1,78 to 80 °C
20,CCCOc1ccc2c(c1)OCC(C(=O)O)=C2,178 to 180 °C
21,O=C(O)c1cc(Cl)no1,139 to 141 °C
22,Fc1cccc(-n2nnnc2S)c1,128 to 146 °C
23,CC(C)(C)OC(=O)N1CCC(C(=O)O)C1 (stereo unspecified),134 to 136 °C
24,CSCCC1NC(=O)NC1=O (stereo unspecified),108 to 110 °C

row,SMILES,melting point
1,NC(=O)CNC(=O)c1cccc(N)c1,170 to 172 °C
2,COc1ccc2c(c1)C(=O)CCO2,44 to 46 °C
3,COc1cc(OC)cc(N2CCC(Br)C2=O)c1 (stereo unspecified),78 to 80 °C
4,CNC(=Nc1cc(C)nn1-c1ccccc1)c1ccc(F)cc1,227 to 228 °C
5,Nc1cc(F)c(N2CCCCC2)c(F)c1,70 to 72 °C
6,CC(C)(C)Cc1cc(N)n[nH]1,106 to 108 °C
7,CCCc1ccc(C(=O)COc2ccc(C=O)cc2OC)cc1,73 to 75 °C
8,N#Cc1c(Cl)nc(Cl)c(Cl)c1Cl,148 to 150 °C
9,CC(=O)C(C#N)c1ccc(Cl)cc1 (stereo unspecified),129 to 131 °C
10,Oc1ccnc2c(OC(F)(F)F)cccc12,145 to 147 °C
11,NC(=O)c1cccc(N)n1,141 to 143 °C
12,CN(C)c1ccc(C(=O)O)nn1,167 to 169 °C
13,COc1ccc(N2CC(C(=O)O)CC2=O)cc1 (stereo unspecified),171 to 173 °C
14,Nc1nc(Cl)ncc1[N+](=O)[O-],209 to 211 °C
15,CNS(=O)(=O)c1ccc(CCC(=O)O)cc1,188 to 190 °C
16,C=CC(=O)Nc1cccc(C#N)c1,117 to 119 °C
17,O=C(Cc1ccccc1)C(Br)c1ccccc1 (stereo unspecified),47 to 49 °C
18,COc1cccc(-n2nc(C)c(CCC(=O)O)c2C)c1,104 to 115 °C
19,NC(=O)NC(CC(=O)O)c1ccc(Br)cc1 (stereo unspecified),199 to 201 °C
20,O=C(O)CCS(=O)(=O)Nc1ccccc1,127 to 129 °C
21,O=C(O)CCNC(=O)c1cc(F)ccc1Br,112 to 114 °C
22,O=C1CC2(CCCCC2)CC(=O)N1,169 to 171 °C
23,c1ncn(C2CCNCC2)n1,97 to 99 °C
24,OCc1cc(Cl)c2c(c1)OCO2,101 to 105 °C

row,SMILES,melting point
1,CC(C)(C)OC(=O)N1CCC(NCC(F)(F)F)CC1,51 to 53 °C
2,Cc1cccc(-c2nc3cc(Cl)ccc3[nH]2)c1O,249 to 251 °C
3,O=C(O)/C=C/c1ccc(Cl)s1,198 to 200 °C
4,CCCNc1cc(F)ccc1[N+](=O)[O-],61 to 63 °C
5,COCCNS(=O)(=O)c1ccc(C(=O)O)cc1,254 to 256 °C
6,O=C(CCl)Nc1ccccc1Sc1ccccc1,159 to 161 °C
7,NNC(=O)Nc1ccc(S(N)(=O)=O)cc1,216 to 218 °C
8,CCOc1cc2c(cc1CBr)OC(C)C2 (stereo unspecified),69 to 71 °C
9,CC(C)C(Oc1ccccc1Br)C(=O)O (stereo unspecified),63 to 65 °C
10,COc1cccc(Cl)c1C(=O)O,140 to 142 °C
11,O=C(O)CSCc1cc(-c2cccs2)on1,113 to 115 °C
12,Cc1occc1-c1nnc(S)n1N,159 to 161 °C
13,CC(Oc1ccc(C=CC(=O)O)cc1F)c1ccccc1 (stereo unspecified),168 to 170 °C
14,CC(Cl)C(=O)Nc1ccc(F)c(F)c1F (stereo unspecified),136 to 139 °C
15,O=c1c(Cl)c(Cl)cnn1Cc1ccccc1,87 to 89 °C
16,Nc1cccc(-n2ccc(C(=O)O)n2)c1,249 to 251 °C
17,O=C(C1OCCc2ccccc21)N1CCCC1 (stereo unspecified),109 to 111 °C
18,Cc1c(S(=O)(=O)Cl)sc2cccc(F)c12,114 to 116 °C
19,O=C(CCl)Nc1ccc(Cl)c(Cl)c1,103 to 105 °C
20,Cn1nnnc1-c1cccc(S(=O)(=O)Cl)c1,86 to 88 °C
21,CC(C)(C)OC(=O)N1CCc2c(N)cccc2C1,122 to 124 °C
22,O=C(O)CCCCCNC1=NS(=O)(=O)c2ccccc21,189 to 191 °C
23,CSCc1c(C(=O)O)sc2ccccc12,201 to 203 °C
